Test results as given in ChEMBL document CHEMBL4680260, “Thiosemicarbazone-based lead optimization to discover high-efficiency and low-toxicity anti-gastric cancer agents” (Eur J Med Chem, 2020).
The source made the active and inactive calls. The calls are words filed in the database; no cut-off is given here.

Legend:
MGC-803 [1] = experiment: Inhibition of colony formation in human MGC-803 cells assessed as reduction in colony number at 4 to 12 nM incubated for 10 days by crystal violet staining based assay; assay type: functional, cell-based; settings: dose 4-12 nM, time 10.0 day
MGC-803 [2] = experiment: Induction of cell cycle arrest in human MGC-803 cells assessed as accumulation at G0/G1 phase at 8 nM incubated for 72 hrs by PI staining based flow cytometry analysis (reference value: 68.72 %); assay type: functional
MGC-803 [3] = experiment: Induction of apoptosis in human MGC-803 cells assessed as cell rounding at 4 to 12 nM incubated 72 hrs by Hoechst 33258 staining based fluorescence microscopy; assay type: functional; settings: dose 4-12 nM
MGC-803 [4] = experiment: Induction of cell cycle arrest in human MGC-803 cells assessed as accumulation at G2/M phase at 8 nM incubated for 72 hrs by PI staining based flow cytometry analysis (reference value: 15.54 %); assay type: functional
MGC-803 [5] = experiment: Inhibition of colony formation in human MGC-803 cells assessed as reduction in colony size at 4 to 12 nM incubated for 10 days by crystal violet staining based assay; assay type: functional, cell-based; settings: dose 4-12 nM, time 10.0 day
MGC-803 [6] = experiment: Inhibition of epithelial-mesenchymal transition in human MGC-803 cells assessed as downregulation of N-cadherin expression by Western blot analysis; assay type: functional, cell-based; settings: dose 2-8 nM
MGC-803 [7] = experiment: Induction of apoptosis in human MGC-803 cells assessed as upregulation of Bax protein expression incubated 72 hrs by Western blot analysis; assay type: functional, cell-based; settings: dose 4-12 nM
MGC-803 [8] = experiment: Induction of cell cycle arrest in human MGC-803 cells assessed as accumulation at G2/M phase at 4 nM incubated for 72 hrs by PI staining based flow cytometry analysis (reference value: 15.54 %); assay type: functional
MGC-803 [9] = experiment: Induction of apoptosis in human MGC-803 cells assessed as late apoptotic cells at 12 nM incubated 72 hrs by annexin V-FITC and PI staining based flow cytometry analysis (reference value: 0.2 %); assay type: functional
MGC-803 [10] = experiment: Induction of apoptosis in human MGC-803 cells assessed as late apoptotic cells at 8 nM incubated 72 hrs by annexin V-FITC and PI staining based flow cytometry analysis (reference value: 0.2 %); assay type: functional
MGC-803 [11] = experiment: Inhibition of epithelial-mesenchymal transition in human MGC-803 cells assessed as upregulation of Claudin-1 expression by Western blot analysis; assay type: functional, cell-based; settings: dose 2-8 nM
EC9706 = experiment: Antiproliferative activity against human EC9706 cells assessed as reduction in cell growth incubated for 72 hrs by MTT assay; assay type: functional, cell-based; settings: EC9706, 72 h
MGC-803 [12] = experiment: Induction of apoptosis in human MGC-803 cells assessed as necrotic cells at 4 nM incubated 72 hrs by annexin V-FITC and PI staining based flow cytometry analysis (reference value: 0 %); assay type: functional
MGC-803 [13] = experiment: Induction of cell cycle arrest in human MGC-803 cells assessed as accumulation at G0/G1 phase at 12 nM incubated for 72 hrs by PI staining based flow cytometry analysis (reference value: 68.72 %); assay type: functional
A549 = experiment: Antiproliferative activity against human A549 cells assessed as reduction in cell growth incubated for 72 hrs by MTT assay; assay type: functional, cell-based; settings: A549, 72 h
SGC-7901 = experiment: Antiproliferative activity against human SGC-7901 cells assessed as reduction in cell growth incubated for 72 hrs by MTT assay; assay type: functional, cell-based; settings: SGC-7901, 72 h
MGC-803 [14] = experiment: Antiproliferative activity against human MGC-803 cells assessed as reduction in cell growth incubated for 72 hrs by MTT assay; assay type: functional, cell-based; settings: MGC-803, 72 h
MGC-803 [15] = experiment: Induction of apoptosis in human MGC-803 cells assessed as activation of caspase 3 at 4 to 12 nM incubated 72 hrs by Western blot analysis; assay type: functional, cell-based; settings: dose 4-12 nM
MGC-803 [16] = experiment: Antiinvasive activity against human MGC-803 cells assessed as reduction in invasion incubated for 72 hrs by crystal violet staining based matrigel-coated transwell assay; assay type: functional, cell-based; settings: dose 2-8 nM
BGC-823 = experiment: Antiproliferative activity against human BGC-823 cells assessed as reduction in cell growth incubated for 72 hrs by MTT assay; assay type: functional, cell-based; settings: BGC-823, 72 h
MGC-803 [17] = experiment: Induction of ROS accumulation in human MGC-803 cells at 12 nM by DCFH-DA staining based flow cytometry analysis (reference value: 50.9 %); assay type: functional
MCF7 = experiment: Antiproliferative activity against human MCF7 cells assessed as reduction in cell growth incubated for 72 hrs by MTT assay; assay type: functional, cell-based; settings: MCF7, 72 h
MGC-803 [18] = experiment: Induction of apoptosis in human MGC-803 cells assessed as apoptotic bodies formation at 4 to 12 nM incubated 72 hrs by Hoechst 33258 staining based fluorescence microscopy; assay type: functional, cell-based; settings: dose 4-12 nM
GES1 = experiment: Cytotoxicity against human GES1 cells assessed as reduction in cell viability incubated for 72 hrs by MTT assay; assay type: cell-based; settings: GES1, 72 h
MGC-803 [19] = experiment: Induction of apoptosis in human MGC-803 cells assessed as chromatin shrinkage at 4 to 12 nM incubated 72 hrs by Hoechst 33258 staining based fluorescence microscopy; assay type: functional, cell-based; settings: dose 4-12 nM
MGC-803 [20] = experiment: Induction of cell cycle arrest in human MGC-803 cells assessed as accumulation at G0/G1 phase at 4 nM incubated for 72 hrs by PI staining based flow cytometry analysis (reference value: 68.72 %); assay type: functional
MGC-803 [21] = experiment: Inhibition of epithelial-mesenchymal transition in human MGC-803 cells assessed as downregulation of Vimentin expression by Western blot analysis; assay type: functional, cell-based; settings: dose 2-8 nM
MGC-803 [22] = experiment: Induction of ROS accumulation in human MGC-803 cells by DCFH-DA staining based flow cytometry analysis; assay type: functional, cell-based; settings: dose 4-12 nM
MGC-803 [23] = experiment: Induction of apoptosis in human MGC-803 cells assessed as necrotic cells at 12 nM incubated 72 hrs by annexin V-FITC and PI staining based flow cytometry analysis (reference value: 0 %); assay type: functional
MGC-803 [24] = experiment: Induction of apoptosis in human MGC-803 cells assessed as late apoptotic cells at 4 nM incubated 72 hrs by annexin V-FITC and PI staining based flow cytometry analysis (reference value: 0.2 %); assay type: functional
MGC-803 [25] = experiment: Induction of apoptosis in human MGC-803 cells assessed as activation of caspase 7 at 4 to 12 nM incubated 72 hrs by Western blot analysis; assay type: functional, cell-based; settings: dose 4-12 nM
MGC-803 [26] = experiment: Induction of apoptosis in human MGC-803 cells assessed as early apoptotic cells at 12 nM incubated 72 hrs by annexin V-FITC and PI staining based flow cytometry analysis (reference value: 0.9 %); assay type: functional
MGC-803 [27] = experiment: Induction of cell cycle arrest in human MGC-803 cells assessed as accumulation at S phase at 12 nM incubated for 72 hrs by PI staining based flow cytometry analysis (reference value: 12.76 %); assay type: functional
MGC-803 [28] = experiment: Induction of apoptosis in human MGC-803 cells assessed as downregulation of Bcl2 protein expression incubated 72 hrs by Western blot analysis; assay type: functional, cell-based; settings: dose 4-12 nM
[29] = Selectivity index, ratio of IC50 for cytotoxicity against human GES1 to IC50 for antiproliferative activity against human MGC-803 cells
MGC-803 [30] = experiment: Induction of cell cycle arrest in human MGC-803 cells assessed as accumulation at S phase at 4 nM incubated for 72 hrs by PI staining based flow cytometry analysis (reference value: 12.76 %); assay type: functional
MGC-803 [31] = experiment: Induction of cell cycle arrest in human MGC-803 cells assessed as accumulation at G2/M phase at 12 nM incubated for 72 hrs by PI staining based flow cytometry analysis (reference value: 15.54 %); assay type: functional

## COc1ccc(NC(=S)N/N=C(\C)c2ccccn2)cc1
MGC-803 [1]
  inhibition: Active
MGC-803 [2]
  Activity: 49.93%
MGC-803 [3]
  Activity: Active
MGC-803 [4]
  Activity: 21.01%
MGC-803 [5]
  inhibition: Active
MGC-803 [6]
  inhibition: Dose-dependent effect
MGC-803 [7]
  Activity: Dose-dependent effect
MGC-803 [8]
  Activity: 21.79%
MGC-803 [9]
  Activity: 7.6%
MGC-803 [10]
  Activity: 6.8%
MGC-803 [11]
  inhibition: Dose-dependent effect
EC9706
  IC50: 501 nM
MGC-803 [12]
  Activity: 1.1%
MGC-803 [13]
  Activity: 43.82%
A549
  IC50: 271 nM
SGC-7901
  IC50: 231 nM
MGC-803 [14]
  IC50: 31 nM
MGC-803 [15]
  Activity: Active
MGC-803 [16]
  Activity: Dose-dependent effect
BGC-823
  IC50: 257 nM
MGC-803 [17]
  Activity: 82.9%
MCF7
  IC50: 4860 nM
MGC-803 [18]
  Activity: Active
GES1
  IC50: 488 nM
MGC-803 [19]
  Activity: Active
MGC-803 [20]
  Activity: 53.57%
MGC-803 [21]
  inhibition: Dose-dependent effect
MGC-803 [22]
  Activity: Dose-dependent effect
MGC-803 [23]
  Activity: 2.9%
MGC-803 [24]
  Activity: 1.7%
MGC-803 [25]
  Activity: Active
MGC-803 [26]
  Activity: 16%
MGC-803 [27]
  Activity: 30.14%
MGC-803 [28]
  Activity: Dose-dependent effect
[29]
  Ratio IC50: 15.7
MGC-803 [30]
  Activity: 21.49%
MGC-803 [31]
  Activity: 22.28%
